Holding throughout (assay type): cell-based
The subject of one assay is mouse washed platelets. Briefly: Platelet aggregation of mouse washed platelets. The note with it: 1 U/mL human thrombin, 1 μM human CatG or 1 mM RA-11mer. An excerpt: Animal studies. Mouse platelets were isolated as previously described from C57BL/6 mice (Denorme et al., Blood. 2020; 135(6):429-440). Dog platelets were isolated from whole blood drawn into ACD using a similar isolation procedure as for human platelets. All animal studies were approved by the University of Utah Institutional Animal Care and Use Committee (18-10012).
Platelet and neutrophil isolation. Platelets and neutrophils were isolated as previously described (Yost et al., J Clin Invest. 2016; 126(10):3783-3798). Platelet isolation from dogs, rats and mice was approved by the IACUC. Platelet activation and aggregation were performed as previously described (Manne et al., Blood. 2020; 136(11): 1317-1329).
(§1) Platelet isolation, aggregation, and activation. Human washed platelets were prepared and resuspended in Tyrode's Buffer at 2×10^8/mL as described (Edelstein et al., Nat Med. 2013; 19(12):1609-1616). For human and dog platelet comparisons, platelets were prepared using a modified human platelet protocol with final concentrations of […] (Cayman Chemical, Ann Arbor, MI, USA) used during centrifugation steps. Centrifugations after Tyrode's washes was decreased to 1,250×g as described in Cremer et al., PLOS One. 2019; 14(11): e0224891. Platelet aggregation was measured under stirring conditions at 37° C. using a PAP-8E aggregometer after treatment with the following agonists: arachidonic acid (Bio/Data Corporation, Horsham, PA, USA), cathepsin G, elastase, proteinase 3 (Athens Research Group), α-thrombin (Sigma, St. Louis, MO, USA), PAR-1 peptide (SFLLRN) (GL Biochem, China). P-selectin and PAC-1 were measured as previously described (Yee et al., J Thromb Haemost. 2006; 4(9):2043-2050; Tourdot et al., Arterioscler Thromb Vasc Biol. 2014; 34(12):2644-2650).

A further assay concerns the target T1, PAR4-S66E (Homo sapiens, UniProt Q96RI0, S66E).
T1 construct: Flag; expressed in transfected cells; host or cells: HEK293T/17 (ATCC CRL-11268)
T1 sequence (Q96RI0 18-385 S66E): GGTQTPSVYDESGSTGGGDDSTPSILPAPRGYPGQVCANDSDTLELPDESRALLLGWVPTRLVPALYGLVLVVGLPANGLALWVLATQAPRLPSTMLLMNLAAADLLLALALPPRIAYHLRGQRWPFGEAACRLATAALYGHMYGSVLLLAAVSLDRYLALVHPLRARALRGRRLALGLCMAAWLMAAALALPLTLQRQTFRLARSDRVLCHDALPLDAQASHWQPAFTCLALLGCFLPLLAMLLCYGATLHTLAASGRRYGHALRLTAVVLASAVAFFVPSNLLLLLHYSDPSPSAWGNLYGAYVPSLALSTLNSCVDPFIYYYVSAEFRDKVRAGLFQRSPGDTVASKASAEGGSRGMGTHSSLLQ
Briefly: PAR4 mutant calcium flux assay, HEK293T/17 cells, S66E. The note with it: 100 nM vorapaxar. On the procedure:
(§2) PAR4 mutant calcium flux assays. Using Quikchange Lightning Site-Directed mutagenesis (Agilent) per manufacturing instructions, pCMV-Flag-PAR4-S66E, pCMV-Flag-PAR4-S67E, and pCMV-Flag-PAR4-R68E were generated from mutation of pCMV-Flag-PAR4 and confirmed by sequencing (University of Utah DNA Sequencing Core). Prior to transfection, HEK293T/17 cells (ATCC CRL-11268) were seeded at 4.5×10^4/mL. The following day, cells were transfected with the plasmid of interest using Lipofectamine 2000 (Invitrogen, Carlsbad, CA, USA). Twenty-four hours after transfection, media was removed and replaced with Optimem w/Glutamax (Gibco, Carlsbad, CA, USA) containing vorapaxar (100 nM) (Cayman Chemical, Ann Arbor, MI, USA) and Fura2-QBT (Molecular Devices). Following incubation for 1 hour at 37° C., plate was placed in the Flexstation 3 (Molecular Devices) where agonists, Tyrode's Buffer, cathepsin G (2.5 μM), or α-thrombin (1.5 U/mL), were injected onto cells and calcium mobilization was monitored and recorded.

For another assay, the target named is T2, PAR4-R68E (Homo sapiens, UniProt Q96RI0, R68E).
T2 construct: Flag; expressed in transfected cells; host or cells: HEK293T/17 (ATCC CRL-11268)
T2 sequence (Q96RI0 18-385 R68E): T1 sequence (Q96RI0 18-385 S66E) with E49S, R51E
Description: PAR4 mutant calcium flux assay, HEK293T/17 cells, R68E. As to conditions: 100 nM vorapaxar. On the procedure: as §2

A further assay deals with washed platelets. Briefly: Platelet aggregation of human washed platelets. As to conditions: for platelet aggregation, species comparison: humans: 1 U/mL human thrombin, 1 μM human CatG or 1 mM RA-11mer. Here is the method: as §1
GYPGQV-NH2 (SEQ ID NO: 5), RALLLGWVPTR-NH2 (SEQ ID NO: 1), ALLLGWVPTR-NH2 (SEQ ID NO: 2), RALLLG-NH2 (SEQ ID NO: 4). Peptides were synthesized by BIOMATIK (Wilmington, DE, USA) at similar purities. All peptides were suspended in 50% DMSO and 50% ethanol. To measure platelet activation, washed platelets were stimulated with various concentrations of the peptide in the presence of CD41-APC, P-selectin (PE) and PAC-1 (FITC) for 15 minutes at 37° C. and then fixed with FACS Lysis Buffer. Samples were immediately run on a Cytoflex flow cytometer. In some experiments, platelets were stimulated with peptides and platelet aggregation performed as described above. Platelet calcium flux was induced by RALLLGWVPTR (2 mM; SEQ ID NO: 1), CatG (500 nM), ALLLGWVPTR (2 mM; SEQ ID NO: 2) or tyrodes buffer and monitored as described above.

Residue numbers refer to the chain shown, from its start.

Take “CatG: serine protease cathepsin G released by activated neutrophils”: the “platelet aggregation, species comparison: mice” value in the assay with mouse washed platelets is “only induced platelet aggregation in humans and dogs”. For the same substance, in the assay with PAR4-S66E (CatG 2.5 μM), the “CatG-induced calcium flux, S66E mutant compared with WT” value was “slight decrease”. In the assay with PAR4-R68E (CatG 2.5 μM, P<0.001), the “CatG-induced calcium flux, R68E mutant compared with WT” value is “significantly less calcium flux than WT”. In addition, the “platelet aggregation, species comparison: humans” value with washed platelets is reported as “induced platelet aggregation”. Moreover, the “potency as activator of PAR4, comparison” value in the assay on washed platelets (from platelet aggregation data) is “much less potent than the thrombin enzyme”. Moreover, in the assay on washed platelets (washed platelets, 400 nM protease), the “platelet aggregation induced by neutrophil serine protease” value is given as “only protease to induce platelet aggregation”.

Regarding thrombin, the “platelet aggregation, species comparison: mice” value with mouse washed platelets is “induced platelet aggregation”. In addition, the “thrombin-induced calcium flux, S66E mutant compared with WT” value on PAR4-S66E (thrombin 1.5 U/mL) is listed as “None of the PAR4 mutants were significantly different than WT”. Also, the “thrombin-induced calcium flux, R68E mutant compared with WT” value on PAR4-R68E (thrombin 1.5 U/mL) is on record as “None of the PAR4 mutants were significantly different than WT”. Besides, the “platelet aggregation, species comparison: humans” value with washed platelets is on record as “induced platelet aggregation”.

(Values after patent US12077607B2, “Functional and therapeutic effects of PAR4 cleavage by cathepsin G” (UNIVERSITY OF UTAH RESEARCH FOUNDATION, priority 2021, dated 2024).)
